Source: US8680012B2, “4-phenyl-pyrane-3,5-diones,4-phenyl-thiopyrane-3,6-diones and cyclohexanetriones as novel herbicides” (Syngenta Crop Protection LLC, priority 2006, dated 2014)

The compounds below were run on Alopecurus myosuroides (ALOMY) (assay: Example B pre-emergence herbicidal activity, glasshouse pot test). Details: 312 h, rate 250 g/ha, evaluated after 13 days, read-out: Pre-emergence activity ALOMY (100=total damage to plant; 0=no damage to plant).
Format: in vivo
Outline: (§1)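 Pot-grown plants sprayed one day after sowing (pre-emergence) or after 8 days (post-emergence) with compound in acetone/water 50:50 containing 0.5% Tween 20. Glasshouse at 24/16 °C day/night, 14 h light, 65% humidity; damage scored after 13 days, 0 = none to 100 = total.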

SMILES | pest or weed control at 250 g/ha
CCc1ccc(-c2ccc(Cl)cc2Cl)cc1C1=C(O)C(C)(C)C(=O)C(C)(C)C1=O [Compound B-13] | 0%
Cc1ccc(-c2ccc(Cl)cc2F)cc1C1=C(O)C(C)(C)C(=O)C(C)(C)C1=O [Compound B-18] | 40%
Cc1ccc(-c2ccc(Cl)c(F)c2)cc1C1=C(O)C(C)(C)C(=O)C(C)(C)C1=O [Compound B-23] | 0%

What follows are compounds tested on Amaranthus retroflexus (AMARE) in the same assay as above. Details: 312 h, rate 250 g/ha, evaluated after 13 days, read-out: Pre-emergence activity AMARE (100=total damage to plant; 0=no damage to plant).
Format: in vivo
Outline: as §1

SMILES | pest or weed control at 250 g/ha
CCc1ccc(-c2ccc(Cl)cc2Cl)cc1C1=C(O)C(C)(C)C(=O)C(C)(C)C1=O [Compound B-13] | 0%
Cc1ccc(-c2ccc(Cl)cc2F)cc1C1=C(O)C(C)(C)C(=O)C(C)(C)C1=O [Compound B-18] | 0%
Cc1ccc(-c2ccc(Cl)c(F)c2)cc1C1=C(O)C(C)(C)C(=O)C(C)(C)C1=O [Compound B-23] | 0%

The compounds below were run on Solanum nigrum (SOLNI) in the same assay as above. Details: 312 h, rate 250 g/ha, evaluated after 13 days, read-out: Pre-emergence activity SOLNI (100=total damage to plant; 0=no damage to plant).
Format: in vivo
Outline: as §1

SMILES | pest or weed control at 250 g/ha
CCc1ccc(-c2ccc(Cl)cc2Cl)cc1C1=C(O)C(C)(C)C(=O)C(C)(C)C1=O [Compound B-13] | 0%
Cc1ccc(-c2ccc(Cl)cc2F)cc1C1=C(O)C(C)(C)C(=O)C(C)(C)C1=O [Compound B-18] | 0%
Cc1ccc(-c2ccc(Cl)c(F)c2)cc1C1=C(O)C(C)(C)C(=O)C(C)(C)C1=O [Compound B-23] | 0%

What follows are compounds tested on Avena fatua (AVEFA) in the same assay as above. Details: 312 h, rate 250 g/ha, evaluated after 13 days, read-out: Pre-emergence activity AVEFA (100=total damage to plant; 0=no damage to plant).
Format: in vivo
Outline: as §1

SMILES | pest or weed control at 250 g/ha
CCc1ccc(-c2ccc(Cl)cc2Cl)cc1C1=C(O)C(C)(C)C(=O)C(C)(C)C1=O [Compound B-13] | 20%
Cc1ccc(-c2ccc(Cl)cc2F)cc1C1=C(O)C(C)(C)C(=O)C(C)(C)C1=O [Compound B-18] | 0%
Cc1ccc(-c2ccc(Cl)c(F)c2)cc1C1=C(O)C(C)(C)C(=O)C(C)(C)C1=O [Compound B-23] | 0%

The compounds below were run on Setaria faberi (SETFA) in the same assay as above. Details: 312 h, rate 250 g/ha, evaluated after 13 days, read-out: Pre-emergence activity SETFA (100=total damage to plant; 0=no damage to plant).
Format: in vivo
Outline: as §1

SMILES | pest or weed control at 250 g/ha
CCc1ccc(-c2ccc(Cl)cc2Cl)cc1C1=C(O)C(C)(C)C(=O)C(C)(C)C1=O [Compound B-13] | 20%
Cc1ccc(-c2ccc(Cl)cc2F)cc1C1=C(O)C(C)(C)C(=O)C(C)(C)C1=O [Compound B-18] | 20%
Cc1ccc(-c2ccc(Cl)c(F)c2)cc1C1=C(O)C(C)(C)C(=O)C(C)(C)C1=O [Compound B-23] | 0%

The compounds below were run on Echinochloa crus-galli (ECHCG) in the same assay as above. Details: 312 h, rate 250 g/ha, evaluated after 13 days, read-out: Pre-emergence activity ECHCG (100=total damage to plant; 0=no damage to plant).
Format: in vivo
Outline: as §1

SMILES | pest or weed control at 250 g/ha
CCc1ccc(-c2ccc(Cl)cc2Cl)cc1C1=C(O)C(C)(C)C(=O)C(C)(C)C1=O [Compound B-13] | 30%
Cc1ccc(-c2ccc(Cl)cc2F)cc1C1=C(O)C(C)(C)C(=O)C(C)(C)C1=O [Compound B-18] | 0%
Cc1ccc(-c2ccc(Cl)c(F)c2)cc1C1=C(O)C(C)(C)C(=O)C(C)(C)C1=O [Compound B-23] | 10%

Each compound was assayed on Alopecurus myosuroides (ALOMY) (assay: Example B post-emergence herbicidal activity, glasshouse pot test). Details: 312 h, rate 250 g/ha, evaluated after 13 days, read-out: Post-emergence activity ALOMY (100=total damage to plant; 0=no damage to plant).
Format: in vivo
Outline: as §1

SMILES | pest or weed control at 250 g/ha
CCc1ccc(-c2ccc(Cl)cc2Cl)cc1C1=C(O)C(C)(C)C(=O)C(C)(C)C1=O [Compound B-13] | 0%
Cc1ccc(-c2ccc(Cl)cc2F)cc1C1=C(O)C(C)(C)C(=O)C(C)(C)C1=O [Compound B-18] | 10%
Cc1ccc(-c2ccc(Cl)c(F)c2)cc1C1=C(O)C(C)(C)C(=O)C(C)(C)C1=O [Compound B-23] | 30%

Each compound was assayed on Amaranthus retroflexus (AMARE) in the same assay as above. Details: 312 h, rate 250 g/ha, evaluated after 13 days, read-out: Post-emergence activity AMARE (100=total damage to plant; 0=no damage to plant).
Format: in vivo
Outline: as §1

SMILES | pest or weed control at 250 g/ha
CCc1ccc(-c2ccc(Cl)cc2Cl)cc1C1=C(O)C(C)(C)C(=O)C(C)(C)C1=O [Compound B-13] | 20%
Cc1ccc(-c2ccc(Cl)cc2F)cc1C1=C(O)C(C)(C)C(=O)C(C)(C)C1=O [Compound B-18] | 0%
Cc1ccc(-c2ccc(Cl)c(F)c2)cc1C1=C(O)C(C)(C)C(=O)C(C)(C)C1=O [Compound B-23] | 0%

The compounds below were run on Solanum nigrum (SOLNI) in the same assay as above. Details: 312 h, rate 250 g/ha, evaluated after 13 days, read-out: Post-emergence activity SOLNI (100=total damage to plant; 0=no damage to plant).
Format: in vivo
Outline: as §1

SMILES | pest or weed control at 250 g/ha
CCc1ccc(-c2ccc(Cl)cc2Cl)cc1C1=C(O)C(C)(C)C(=O)C(C)(C)C1=O [Compound B-13] | 0%
Cc1ccc(-c2ccc(Cl)cc2F)cc1C1=C(O)C(C)(C)C(=O)C(C)(C)C1=O [Compound B-18] | 0%
Cc1ccc(-c2ccc(Cl)c(F)c2)cc1C1=C(O)C(C)(C)C(=O)C(C)(C)C1=O [Compound B-23] | 0%

Each compound was assayed on Avena fatua (AVEFA) in the same assay as above. Details: 312 h, rate 250 g/ha, evaluated after 13 days, read-out: Post-emergence activity AVEFA (100=total damage to plant; 0=no damage to plant).
Format: in vivo
Outline: as §1

SMILES | pest or weed control at 250 g/ha
CCc1ccc(-c2ccc(Cl)cc2Cl)cc1C1=C(O)C(C)(C)C(=O)C(C)(C)C1=O [Compound B-13] | 30%
Cc1ccc(-c2ccc(Cl)cc2F)cc1C1=C(O)C(C)(C)C(=O)C(C)(C)C1=O [Compound B-18] | 0%
Cc1ccc(-c2ccc(Cl)c(F)c2)cc1C1=C(O)C(C)(C)C(=O)C(C)(C)C1=O [Compound B-23] | 0%

What follows are compounds tested on Setaria faberi (SETFA) in the same assay as above. Details: 312 h, rate 250 g/ha, evaluated after 13 days, read-out: Post-emergence activity SETFA (100=total damage to plant; 0=no damage to plant).
Format: in vivo
Outline: as §1

SMILES | pest or weed control at 250 g/ha
CCc1ccc(-c2ccc(Cl)cc2Cl)cc1C1=C(O)C(C)(C)C(=O)C(C)(C)C1=O [Compound B-13] | 90%
Cc1ccc(-c2ccc(Cl)cc2F)cc1C1=C(O)C(C)(C)C(=O)C(C)(C)C1=O [Compound B-18] | 70%
Cc1ccc(-c2ccc(Cl)c(F)c2)cc1C1=C(O)C(C)(C)C(=O)C(C)(C)C1=O [Compound B-23] | 70%

These compounds were tested on Echinochloa crus-galli (ECHCG) in the same assay as above. Details: 312 h, rate 250 g/ha, evaluated after 13 days, read-out: Post-emergence activity ECHCG (100=total damage to plant; 0=no damage to plant).
Format: in vivo
Outline: as §1

SMILES | pest or weed control at 250 g/ha
CCc1ccc(-c2ccc(Cl)cc2Cl)cc1C1=C(O)C(C)(C)C(=O)C(C)(C)C1=O [Compound B-13] | 80%
Cc1ccc(-c2ccc(Cl)cc2F)cc1C1=C(O)C(C)(C)C(=O)C(C)(C)C1=O [Compound B-18] | 60%
Cc1ccc(-c2ccc(Cl)c(F)c2)cc1C1=C(O)C(C)(C)C(=O)C(C)(C)C1=O [Compound B-23] | 60%
